Results published in paper PMC6410080 (Viruses, 2019).
Structures can show the parent of a compound that is named as a salt. Where two headings read alike, the source gives them in different places.

Assays:
SFV [1] = assay: microbe, parasite or virus in culture; type: cell-based, Semliki Forest virus; conditions: Semliki Forest virus; for IC50: HeLa Kyoto, read-out: IC50 SFV (7 h); for inhibition at 10 µM: M-HeLa, 7 h, read-out: % inhibition (SFV screen)
DENV-2 = DENV-2 infection assay / secondary screen (E protein staining); type: cell-based, dengue virus serotype 2; conditions: Dengue virus, DENV2, Huh-7, 24 h; for inhibition at 10 µM: read-out: % inhibition (DENV-2 screen)
SINV = assay: microbe, parasite or virus in culture; type: cell-based, Sindbis virus; conditions: Sindbis virus, HeLa Kyoto, read-out: IC50 SINV
DENV-1 = assay: microbe, parasite or virus in culture; type: cell-based, dengue virus; conditions: Dengue virus, DENV1, Huh-7, read-out: IC50 DENV-1
DENV-3 = assay: microbe, parasite or virus in culture; type: cell-based, dengue virus; conditions: Dengue virus, DENV3, Huh-7, read-out: IC50 DENV-3
YF17D = assay: organism not typed; type: cell-based, yellow fever 17D; conditions: Huh-7, read-out: IC50 YF17D
HCV = assay: microbe, parasite or virus in culture; type: cell-based, hepatitis C virus; conditions: Hepatitis C virus, Huh7.5, read-out: IC50 HCV
VSV VLP = assay: microbe, parasite or virus in culture; type: cell-based, vesicular stomatitis virus; conditions: Vesicular stomatitis virus, HeLa Kyoto, 24 h, read-out: IC50 VSV
RABV VLP = assay: microbe, parasite or virus in culture; type: cell-based, rabies virus; conditions: for IC50: Lyssavirus rabies, HeLa Kyoto, 24 h, read-out: IC50 RABV
H5N1 VLP = assay: microbe, parasite or virus in culture; type: cell-based, influenza H5N1; conditions: for IC50: Influenza A virus, H5N1, HeLa Kyoto, 48 h, read-out: IC50 H5N1
EBOV VLP = assay: microbe, parasite or virus in culture; type: cell-based, Ebola virus; conditions: Zaire ebolavirus, HeLa Kyoto, 48 h, read-out: IC50 EBOV
HIV-1 = assay: microbe, parasite or virus in culture; type: cell-based, human immunodeficiency virus type 1; conditions: for IC50: Human immunodeficiency virus 1, 24 h, read-out: IC50 HIV
HSV-1 = assay: microbe, parasite or virus in culture; type: cell-based, herpes simplex virus 1; conditions: Human alphaherpesvirus 1, Vero, 8 h, read-out: IC50 HSV (Vero)
VACV = assay: microbe, parasite or virus in culture; type: cell-based, vaccinia virus; conditions: Orthopoxvirus vaccinia, HeLa Kyoto, 8 h, read-out: IC50 VACV
VSV_Blam_VLP fusion = assay: microbe, parasite or virus in culture; type: cell-based; conditions: Vesicular stomatitis virus, HeLa Kyoto, read-out: Inhibition of VSV_Blam_VLP fusion compared to DMSO controls
[2] = test system: DID-labelled SFV hemifusion/fusion; type: cell-based, Semliki Forest virus; conditions: HeLa Kyoto, 10 μM (20 μM Raloxifene; Bafilomycin 100 nM), 40 min at 37 °C
SFV [3] = type: cell-based, Semliki Forest virus
viruses/VLPs tested = type: cell-based
HeLa Kyoto cells = conditions: human
in vitro [4] = conditions: human
in vitro [5] = conditions: human; remark: listed apart in the source
Huh7 cells [6] = assay: MTT assay, Huh7 cells; conditions: for TC50 DENV-2 (7 + 17 h): Huh7, compounds 7 h then compound-free media 17 h; for TC50 DENV-2 (24 h): Huh7, compounds 24 h
SFV E1 trimer formation = conditions: HeLa Kyoto, MOI 100; Chloroquine 100 μM
ZIKV [7] = assay: microbe, parasite or virus in culture; type: cell-based, Zika virus; conditions: Zika virus, Huh-7, read-out: IC50 ZIKV
SFV internalisation = type: cell-based, Semliki Forest virus
[8] = test system: Renilla luciferase expression (protein synthesis); type: cell-based
Huh7 cells [9] = conditions: human
ZIKV [10] = conditions: AG129 mice
[11] = 10 mg/kg
in vivo = conditions: CD1, mouse
[12] = read-out: IC50 DENV-2 (7 + 17 h)

Row | SMILES | IC50 (SFV [1]) [µM] | inhibition at 10 µM (SFV [1]) [%] | inhibition at 10 µM (DENV-2) [%] | IC50 (DENV-2; [12]) [µM] | IC50 (DENV-2; read-out: IC50 DENV-2 (24 h)) [µM] | IC50 (SINV) [µM] | IC50 (DENV-1) [µM] | IC50 (DENV-3) [µM] | IC50 (YF17D) [µM] | IC50 (HCV) [µM] | IC50 (VSV VLP) [µM] | IC50 (EBOV VLP) [µM] | IC50 (HSV-1) [µM] | IC50 (VACV) [µM] | inhibition at 10 µM (VSV_Blam_VLP fusion) [%] | Inhibition of DID-SFV de-quenching (in words) [2] | Activity when added before SFV or 30 and 60 min after internalisation (SFV [3]) | Time of Addition (SFV [3]) | Viruses Inhibited (viruses/VLPs tested) | SFV E1 trimer formation (SFV E1 trimer formation) | also measured
1 | O=C(c1ccc(OCCN2CCCCC2)cc1)c1c(-c2ccc(O)cc2)sc2cc(O)ccc12 [Raloxifene, Raloxifene hydrochloride] | 15.1 | 87.7 | 80 | 5.7 | 9.8 | 30.6 | 8.8 | 5.3 | 7.8 | 3.9 | 12.7 | 1.4 | 23.5 | 20 | > 50 | Intermediate levels of inhibition | minor but reproducible decrease in activity | Before and after fusion | Unclear pattern | – | IC50 RABV (RABV VLP): No inhibition; IC50 H5N1 (H5N1 VLP): No inhibition; IC50 HIV (HIV-1; virus, HeLa TZM-bl, 24 h): No inhibition; TC50 SFV (7 h) (HeLa Kyoto cells): >50 µM; TC50 SFV (7h) (HeLa Kyoto cells): >50000 µM; viability at 10 µM (in vitro [4]; % viability (SFV screen)): 92%; viability at 10 µM (in vitro [5]): 60.4%; TC50 DENV-2 (7 + 17 h) (Huh7 cells [6]): 24.8 µM; TC50 DENV-2 (24 h) (Huh7 cells [6]): ~22.63 µM
2 | CCN(CC)CCCC(C)Nc1ccnc2cc(Cl)ccc12 (stereo not drawn) [Chloroquine] | – | – | – | – | – | – | – | – | – | – | – | – | – | – | – | – | – | – | – | prevented trimer formation | –
3 | CC(C)(C)c1cc(C=C(C#N)C#N)cc(C(C)(C)C)c1O [Tyrphostin A9] | 2.9 | 73.5 | 99.7 | 1.2 | 0.4 | ~0.8 | 1.4 | 1.2 | < 0.3 | < 0.3 | 4.1 | 3.2 | 1.5 | 3.4 | > 50 | Strong inhibition of de-quenching | minor but reproducible decrease in activity | Before and after fusion | All tested | No trimers were observed | IC50 (ZIKV [7]): < 0.3 µM; IC50 (RABV VLP): 1.4 µM; IC50 (H5N1 VLP): < 0.5 µM; IC50 (HIV-1): 1.1 µM; Internalised SFV E1/E2 after subtilisin treatment (SFV internalisation): Loss of E1/E2; Decrease of Renilla signal (protein synthesis) [8]: more than 50%; TC50 DENV-2 (7 + 17 h) (Huh7 cells [9]): >50 µM; TC50 DENV-2 (24 h) (Huh7 cells [9]): 28.5 µM; Blood peak (Tyrphostin A9 1 mg/kg IP): 5 µM; Peak blood concentration (Tyrphostin A9 1 mg/kg PO, CD1 mice): 1.52 µM; ZIKV blood titres at days 1 and 3 (ZIKV [10]; Tyrphostin A9 1 mg/kg PO, vs untreated): only minor and non significant differences; Infectious virus in the blood at day 7 p.i. (ZIKV [10]; immunofocus assay): infectious virus was detected in only two of six mice; ZIKV-infected CD14+CD11c+ dendritic cells in blood, day 7 p.i. (ZIKV [10]; without statistical significance): fewer infected CD14+CD11c+ dendritic cells; Reason for suspending administration (ZIKV [10]; Tyrphostin A9 1 mg/kg PO, after the fourth administration): toxicity and weight loss; Toxicity [11]: toxicity; concentration at 2 h (in vivo; 1 mg/kg): 20 nM; concentration at 8 h (in vivo; 1 mg/kg): 760 nM; Tmax (in vivo; po, 1 mg/kg): 60 min; viability at 10 µM (in vitro [4]): 105%; viability at 24 h, 10 µM (in vitro [5]): 50.5%
4 | O=C(Nc1ccc([N+](=O)[O-])cc1Cl)c1cc(Cl)ccc1O [Niclosamide] | 3 | 73.1 | 75.4 | 1.1 | 0.4 | 2.8 | 1.5 | 1.6 | < 0.3 | 0.2 | 3.5 | 2.9 | 1.3 | 3 | > 50 | Strong inhibition of de-quenching | minor but reproducible decrease in activity | Before and after fusion | All tested | No trimers were observed | IC50 (ZIKV [7]): ~0.7 µM; IC50 (RABV VLP): 1.3 µM; IC50 (H5N1 VLP): 1.4 µM; IC50 (HIV-1): 3.3 µM; Internalised SFV E1/E2 after subtilisin treatment (SFV internalisation): Loss of E1/E2; Kinetics of SFV internalisation (subtilisin resistance) (SFV internalisation): remained lower compared to untreated control; Decrease of Renilla signal (protein synthesis) [8]: more than 50%; TC50 SFV (7 h) (HeLa Kyoto cells): >50 µM; TC50 SFV (7h) (HeLa Kyoto cells): >50000 µM; Peak blood concentration (CD1, mouse, in vivo): 40 µM; Blood level after 2 h (mouse, in vivo): undetectable; Tmax (in vivo; ip, 10 mg/kg): 15 min; viability at 10 µM (in vitro [4]; % viability (SFV screen)): 104%; viability at 10 µM (in vitro [5]): 36.9%; TC50 DENV-2 (7 + 17 h) (Huh7 cells [6]): >50 µM; TC50 DENV-2 (24 h) (Huh7 cells [6]): 12.8 µM
